Laboratory results published in patent publication US7442692B2, “Indanyl-piperazine compounds” (Les Laboratoires Servier, priority 2005, dated 2008).
Where a name gives a salt, the structure may show the parent alone.

Legend:
[1] = target: T1, human NK1 receptors (Homo sapiens, UniProt P25103); assay: hNK1 binding ([3H]-Substance P competition on IM9 human lymphoblast cells); conditions: read-out: pKi NK1 (converted)
T1 construct: IM9 human lymphoblast cells endogenously expressing NK1 receptors; endogenous in cells; host or cells: IM9 human lymphoblast cells
Method: IM9 human lymphoblast cells endogenously expressing NK1 receptors are centrifuged and taken up in the incubation buffer containing 50 mM TRIS, 150 mM NaCl, 4 mM CaCl2, protease inhibitors at 1/100^e (Cocktail SIGMA P8340) and 0.2% BSA. The volume of incubation buffer is determined so as to obtain a concentration of 5×10^6 cells/ml. […] Non-specific binding is determined in the presence of 1 μM GR 205171.
At the end of the incubation period, the samples ate filtered through Unifilter GF/B type filters pretreated with PEI (0.1%) and washed several times with the filtration buffer ([…], 150 mM NaCl, 4 mM CaCl2). The radioactivity retained on the filters is measured by counting after addition of scintillation liquid to the filters. The counts are […] analysed by non-linear regression, allowing the isotherms to be plotted and the IC50 values to be determined. […] The results are expressed as pKi (−log Ki).

[2] = target: T2, serotonin (5-HTT) reuptake site (Rattus norvegicus, UniProt P31652); assay: Affinity for serotonin reuptake sites in the rat ([3H]-citalopram competition); type: binding; conditions: rat frontal cortex membranes, read-out: pKi r5-HTT (converted)
T2 construct: from tissue; host or cells: rat frontal cortex membranes
Method: The cortices are homogenised using a Polytron in 40 volumes (weight/volume) of cold Tris-HCl (50 mM, pH 7.4) incubation buffer containing 120 mM NaCl and 5 mM KCl and are then centrifuged for a first time. The sediment is resuspended in the same buffer, incubated for 10 minutes at 37° C. and then re-centrifuged. The membranes are washed a further two times and the sediment is then resuspended in an appropriate volume of incubation buffer. […] Non-specific binding is determined with 10 μM fluoxetine. At the end of the incubation period, the samples are filtered through Unifilter GF/B type filters pretreated with PEI (0.5%) and washed several times with the incubation buffer. The radioactivity retained on the filters is counted after addition of scintillation liquid, with the aid of a scintillation counter. […] The results are expressed as pKi=−log Ki.

T1 sequence (P25103 whole entry): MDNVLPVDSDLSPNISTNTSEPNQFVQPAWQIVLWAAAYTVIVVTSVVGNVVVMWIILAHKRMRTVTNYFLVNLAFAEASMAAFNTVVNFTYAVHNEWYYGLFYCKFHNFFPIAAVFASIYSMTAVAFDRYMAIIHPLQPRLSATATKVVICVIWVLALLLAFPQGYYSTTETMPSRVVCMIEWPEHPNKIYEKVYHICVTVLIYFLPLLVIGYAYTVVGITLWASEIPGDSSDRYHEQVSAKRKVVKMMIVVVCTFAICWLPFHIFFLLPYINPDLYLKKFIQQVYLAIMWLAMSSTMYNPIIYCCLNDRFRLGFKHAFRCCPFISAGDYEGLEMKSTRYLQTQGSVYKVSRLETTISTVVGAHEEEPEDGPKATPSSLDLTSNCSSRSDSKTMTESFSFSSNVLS
T2 sequence (P31652 whole entry): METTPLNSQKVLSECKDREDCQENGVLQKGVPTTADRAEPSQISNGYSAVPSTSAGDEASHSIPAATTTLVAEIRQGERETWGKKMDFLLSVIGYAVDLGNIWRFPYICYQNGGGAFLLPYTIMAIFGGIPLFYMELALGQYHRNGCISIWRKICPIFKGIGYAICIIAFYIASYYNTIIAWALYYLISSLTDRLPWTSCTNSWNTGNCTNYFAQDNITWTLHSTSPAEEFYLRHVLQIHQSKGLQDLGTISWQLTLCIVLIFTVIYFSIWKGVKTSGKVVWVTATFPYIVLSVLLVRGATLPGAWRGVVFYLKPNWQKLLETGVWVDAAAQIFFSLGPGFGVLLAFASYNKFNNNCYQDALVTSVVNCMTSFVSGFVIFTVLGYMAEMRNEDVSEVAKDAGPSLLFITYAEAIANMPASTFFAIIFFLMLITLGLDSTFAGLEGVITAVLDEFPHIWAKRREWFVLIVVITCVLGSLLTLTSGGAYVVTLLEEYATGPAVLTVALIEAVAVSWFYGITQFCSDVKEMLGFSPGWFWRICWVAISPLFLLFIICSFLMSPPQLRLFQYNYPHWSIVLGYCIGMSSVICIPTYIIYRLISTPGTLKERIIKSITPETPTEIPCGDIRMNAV

Row | Ki [1] | Ki [2] | Structure (SMILES)
1 | 0.49 µM | – | CN(Cc1ccccc1)C(=O)C1(N2CCNCC2)CCc2ccccc21 (racemic) [Example 11, (1RS)-N-Benzyl-N-methyl-1-(1-piperazinyl)-1-indancarboxamide dihydrochloride]
2 | 0.513 µM | – | CN(Cc1cc(Cl)cc(Cl)c1)CC1(N2CCNCC2)Cc2ccccc2C1 [Example 79, N-(3,5-Dichlorobenzyl)N-methyl-[2-(1-piperazinyl)indan-2-yl]-methanamine trihydrochloride]
3 | – | 0.0437 µM | CN(Cc1cc(F)cc(Cl)c1)C(=O)C1(N2CCNCC2)Cc2ccccc2C1 [Example 135, N-(3-Chloro-5-fluorobenzyl)-N-methyl-2-(1-piperazinyl)-2-indan-carboxamide dihydrochloride]
4 | – | 0.151 µM | CN(Cc1cc(F)cc(C(F)(F)F)c1)C(=O)C1(N2CCNCC2)CCc2ccccc21 (racemic) [Example 69, (1RS)-N-[3-Fluoro-5(trifluoromethyl)benzyl]-N-methyl-1-(1-piperazinyl)-1-indancarboxamide dihydrochloride]
5 | – | 0.0933 µM | CN(Cc1cc(Cl)cc(Cl)c1)C(=O)C1(N2CCNCC2)CCc2ccccc21 (racemic) [Example 85, (1RS)-N-(3,5-Dichlorobenzyl)-N-methyl-1-(1-piperazinyl)-1-indan-carboxamide dihydrochloride]
6 | 0.162 µM | 0.0631 µM | Cc1cc(C)cc(COCC2(N3CCNCC3)Cc3ccccc3C2)c1 [Example 3, 1-[2-(3,5-Dimethylbenzyloxymethyl)indan-2-yl]piperazine dihydrochloride]
7 | – | 0.0339 µM | CN(Cc1cc(F)cc(F)c1)C(=O)C1(N2CCNCC2)CCc2ccccc21 (racemic) [Example 68, (1RS)-N-(3,5Difluorobenzyl)-N-methyl-1-(1-piperazinyl)-1-indan-carboxamide dihydrochloride]
8 | – | 0.00324 µM | Fc1cc(F)cc(COCC2(N3CCNCC3)CCc3ccccc32)c1 (racemic) [Example 70, (1RS)-1-[1-(3,5Difluorobenzyloxymethyl)indan-1-yl]piperazine dihydrochloride]
9 | 0.398 µM | – | O=C(NCc1cc(C(F)(F)F)cc(C(F)(F)F)c1)C1(N2CCNCC2)Cc2ccccc2C1 [Example 5, N-[3,5-Bis(trifluoromethyl)benzyl]-2-(1-piperazinyl)-2-indan-carboxamide dihydrochloride]
10 | 0.0182 µM | 0.0537 µM | Cc1cc(C)cc(COCC2(N3CCNCC3)CCc3ccccc32)c1 (racemic) [Example 2, 1-[(1RS)-1-(3,5-Dimethylbenzyloxymethyl)indan-1-yl]piperazine dihydrochloride]
11 | 0.00339 µM | 0.245 µM | Brc1cc(Br)cc(COCC2(N3CCNCC3)CCc3ccccc32)c1 (racemic) [Example 1, 1-[(1RS)-1-(3,5Dibromobenzyloxymethyl)indan-1-yl]piperazine dihydrochloride]
